For 55 compounds, IC50 results are on record in PubChem BioAssay AID1159588 (Gregory J. Crowther, 2016).

This experiment has as its target Calcium-dependent protein kinase 4 (Plasmodium falciparum (isolate 3D7)) (UniProt Q8IBS5). The experiment is described as follows: PfCDPK4 kinase inhibitors, biochemical, TCAMS library (AID 1159588). The settings on record: recombinant PfCDPK4, Kinase-Glo ATP depletion luminescence.

Sequence of Calcium-dependent protein kinase 4 (Plasmodium falciparum (isolate 3D7)) (Q8IBS5 whole entry, looked up): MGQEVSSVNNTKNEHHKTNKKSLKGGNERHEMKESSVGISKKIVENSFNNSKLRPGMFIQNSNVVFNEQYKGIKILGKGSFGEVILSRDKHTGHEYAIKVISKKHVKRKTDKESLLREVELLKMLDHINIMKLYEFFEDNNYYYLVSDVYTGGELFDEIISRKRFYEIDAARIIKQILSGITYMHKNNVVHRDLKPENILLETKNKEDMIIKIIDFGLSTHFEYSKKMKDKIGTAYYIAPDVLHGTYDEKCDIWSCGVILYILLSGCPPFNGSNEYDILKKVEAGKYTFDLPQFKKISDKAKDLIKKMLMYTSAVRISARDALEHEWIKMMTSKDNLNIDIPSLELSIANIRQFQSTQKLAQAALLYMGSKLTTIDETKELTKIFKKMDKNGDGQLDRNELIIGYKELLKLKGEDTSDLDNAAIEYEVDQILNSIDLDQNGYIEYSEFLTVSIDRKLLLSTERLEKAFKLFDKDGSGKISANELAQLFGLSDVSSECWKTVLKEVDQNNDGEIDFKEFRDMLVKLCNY

Take `CCn1c(-c2nonc2N)nc2c(-c3ccccc3)ncc(OCCCNCCCN3CCOCC3)c21`: the IC50 was 38 nM. The same measure for `CS(=O)(=O)Cc1ccc(Nc2nccc(-c3c(-c4cccc(NC(=O)c5c(F)cccc5F)c4)nn4ccccc34)n2)cc1`: 52 nM; for `CCn1c(-c2nonc2N)nc2c(-c3cccc(NC(=O)NC45CC6CC(CC(C6)C4)C5)c3)ncc(OCCCN)c21`: 158 nM. As to `Cc1cccc(Nc2nc(N[C@@H]3CCCNC3)nc3cc[nH]c(=O)c23)c1`, the IC50 is 76 nM. For `CC(C)(CN)c1cc(-c2ccc(Cl)c(O)c2)c(-c2ccncc2)o1`, the IC50 is 433 nM.

As for `CCn1c(-c2nonc2N)nc2c(-c3cccc(NC(=O)Nc4ccc5c(c4)CCC5)c3)ncc(OCCCN)c21`, the IC50 was 59 nM. The same measure for `O=c1[nH]ccc2nc(N[C@@H]3CCNC3)nc(Nc3cc(Cl)cc(Cl)c3)c12`: 446 nM; for `CC(=O)Nc1cccc(Nc2nccc(-c3c(-c4cccc(NC(=O)c5c(F)cccc5F)c4)nn4ncccc34)n2)c1`: 26 nM; for `CS(=O)(=O)Cc1ccc(Nc2nccc(-c3c(-c4cccc(NC(=O)C5CCCCC5)c4)nn4ncccc34)n2)cc1`: 67 nM. In the case of `NS(=O)(=O)c1cccc(N=Cc2c(O)[nH]c3ccc(S(=O)(=O)Cc4c(Cl)cccc4Cl)cc23)c1` it was 116 nM. On to `CCN(CC)CCCOc1ccc(Nc2nccc(-c3c(-c4cccc(NC(=O)c5c(F)cccc5F)c4)nn4ccccc34)n2)cc1F`, for which the IC50 was 86 nM.

For `O=C(Nc1cccc(-c2nn3ncccc3c2-c2ccnc(Nc3ccccc3)n2)c1)c1c(F)cccc1F`, the IC50 was 352 nM. On to `CCn1c(-c2nonc2N)nc2c(-c3cccc(Cl)c3)ncc(OCCCNCc3cnc(C)nc3N)c21`, for which the IC50 is 145 nM. Take `Cn1cccc1C(=O)Nc1cccc(-c2nn3ccccc3c2-c2ccnc(Nc3ccc4c(c3)OCCO4)n2)c1`: the IC50 was 191 nM. In the case of `Cc1csc(-c2ncc(OC[C@@H](N)Cc3ccccc3)cc2-c2ccc3n[nH]c(C)c3c2)c1` it was 420 nM; in that of `CNC(=O)c1ccccc1Nc1nc(Nc2ccc(CCN3CCN(C)CC3)cc2)ncc1Cl`, 361 nM; in that of `NS(=O)(=O)c1cccc(Nc2nccc(-c3c(-c4cccc(NC(=O)c5c(F)cccc5F)c4)nn4ccccc34)n2)c1`, 51 nM. `NC[C@H](CC1CCCCC1)NC(=O)c1ccc(-c2ccnc3[nH]ccc23)s1`: the IC50 is 527 nM. `CCn1c(-c2nonc2N)nc2c(-c3cccc(Cl)c3)ncc(OCCCNCCc3cnc[nH]3)c21`: the IC50 was 46 nM.

Consider `O=C(NCC(c1ccc(C(F)(F)F)cc1)N1CCCC1)c1cc(-c2ccncc2)c(-c2cccc(O)c2)o1` (stereo not given), for which the IC50 is 178 nM. In the case of `NCCCNc1nc(Nc2cccc(C(N)=O)c2)c2c(=O)[nH]ccc2n1` it was 967 nM; in that of `N#Cc1ccc(C(=O)Nc2cc(-c3cccc(O)c3)cc3[nH]ncc23)cc1`, 478 nM. In the case of `CCn1c(-c2nonc2N)nc2c(-c3cccc(NC(=O)Nc4ccc(C#N)cc4)c3)ncc(OCCCN)c21` it was 84 nM; in that of `NCC(NC(=O)c1ccc(-c2c[nH]c3ncccc23)s1)c1ccccc1` (stereo not given), 473 nM; in that of `CCn1c(-c2nonc2N)nc2c(-c3cccc(NC(=O)Nc4ccccc4OC)c3)ncc(OCCCN)c21`, 706 nM. In the case of `CCn1c(-c2nonc2N)nc2c(-c3cccc(NC(=O)Nc4ccccc4Cl)c3)ncc(OCCCN)c21` it was 138 nM; in that of `CCn1c(-c2nonc2N)nc2c(-c3ccccc3)ncc(OCCCCNCCc3ncc[nH]3)c21`, 43 nM; in that of `CCN(CC)CCNC(=O)c1ccc(N=Cc2c(O)[nH]c3ccc(S(=O)(=O)Cc4c(Cl)cccc4Cl)cc23)cc1`, 73 nM. Regarding `COc1cc(Nc2nccc(-c3c(-c4cccc(NC(=O)c5c(F)cccc5F)c4)nn4ncccc34)n2)cc(OC)c1OC`, the IC50 is 45 nM. As for `NS(=O)(=O)c1cccc(Nc2nc(N[C@@H]3CCNC3)nc3cc[nH]c(=O)c23)c1`, the IC50 is 135 nM. In the case of `CCn1c(-c2nonc2N)nc2c(-c3cccc(NC(=O)Nc4cccc(Cl)c4)c3)ncc(OCCCN)c21` it was 81 nM; in that of `Cc1cccc(Nc2nc(NCCCCN)nc3cc[nH]c(=O)c23)c1`, 166 nM.

For `O=C(Nc1ccccc1)Nc1cccc(-c2nn3c(OCCN4CCCC4)cccc3c2-c2ccncc2)c1`, the IC50 was 775 nM. Consider `CS(=O)(=O)Cc1ccc(Nc2nccc(-c3c(-c4cccc(C(=O)Nc5c(F)cccc5F)c4)nn4ccccc34)n2)cc1`, for which the IC50 was 65 nM. In the case of `O=C(Nc1cccc(-c2nn3ccccc3c2-c2ccnc(Nc3cccc(-c4cnco4)c3)n2)c1)C1CCCCC1`, the IC50 was 612 nM. Consider `COCCOc1ccc(Nc2nccc(-c3c(-c4cccc(NC(=O)c5c(F)cccc5F)c4)nn4ccccc34)n2)cc1Cl`, for which the IC50 is 853 nM. Take `CN1CCN(c2ccc(Nc3nccc(-c4c(-c5cccc(NC(=O)c6c(F)cccc6F)c5)nn5ccccc45)n3)cc2)CC1`: the IC50 was 75 nM.

For the compound `NS(=O)(=O)CCc1cccc(Nc2nccc(-c3c(-c4cccc(NC(=O)c5c(F)cccc5F)c4)nn4ccccc34)n2)c1`, the IC50 was 29 nM. The same measure for `CCS(=O)(=O)c1ccc(OC)c(Nc2nccc(-c3c(-c4cccc(NC(=O)c5c(F)cccc5F)c4)nn4ncccc34)n2)c1`: 201 nM. Turning to `CCn1c(-c2nonc2N)nc2c(-c3cccc(NC(=O)Nc4cccc(C(F)(F)F)c4)c3)ncc(OCCCN)c21`, the IC50 is 342 nM.

On to `COc1cc(Nc2nccc(-c3c(-c4cccc(NC(=O)c5c(F)cccc5F)c4)nn4ccccc34)n2)cc(OC)c1OC`, for which the IC50 is 77 nM. Take `CC(c1cccc(Nc2nccc(-c3c(-c4cccc(NC(=O)c5c(F)cccc5F)c4)nn4ccccc34)n2)c1)S(C)(=O)=O` (stereo not given): the IC50 was 90 nM. `Cc1[nH]nc2ccc(-c3cc(OC[C@@H](N)Cc4ccccc4)cnc3-c3cc4ccccc4s3)cc12`: the IC50 was 563 nM.

As to `O=C(Nc1c(F)cccc1F)c1cccc(-c2nn3ccccc3c2-c2ccnc(Nc3cccc(-c4cnco4)c3)n2)c1`, the IC50 was 134 nM. Regarding `CC(c1cccc(Nc2nccc(-c3c(-c4cccc(NC(=O)c5c(F)cccc5F)c4)nn4ncccc34)n2)c1)S(C)(=O)=O` (stereo not given), the IC50 is 24 nM.

With `Cc1cc(Nc2ncc(C#N)c(Nc3ccccc3C(N)=O)n2)ccc1N1CCN(C)CC1`, the IC50 was 89 nM.

Turning to `O=C(Nc1cccc(-c2nn3ncccc3c2-c2ccnc(Nc3cccc(-c4cnco4)c3)n2)c1)c1c(F)cccc1F`, the IC50 was 145 nM. For `O=C(Nc1cccc(-c2nn3ccccc3c2-c2ccnc(Nc3ccc(-c4ccn[nH]4)cc3)n2)c1)c1c(F)cccc1F`, the IC50 was 307 nM.

Regarding `CCn1c(-c2nonc2N)nc2c(-c3cccc(NC(=O)Nc4cccc(C#N)c4)c3)ncc(OCCCN)c21`, the IC50 is 170 nM.

As to `Cc1[nH]c(/C=C2\C(=O)Nc3ccc(S(=O)(=O)Cc4c(Cl)cccc4Cl)cc32)c(C)c1C(=O)N1CCC[C@@H]1CN1CCCC1`, the IC50 is 21 nM. With `CN1CCN(c2ccc(Nc3ncc(C#N)c(Nc4ccccc4C(N)=O)n3)cc2)CC1`, the IC50 was 188 nM.

Turning to `O=C(Nc1cccc(-c2nn3ccccc3c2-c2ccnc(Nc3ccc(C(=O)N4CCOCC4)cc3)n2)c1)c1c(F)cccc1F`, the IC50 is 311 nM. `CCn1c(-c2nonc2N)nc2c(-c3cccc(NC(=O)Nc4ccc(C(F)(F)F)cc4)c3)ncc(OCCCN)c21`: the IC50 was 30 nM.

As to `O=C(Nc1cccc(-c2nn3ccccc3c2-c2ccnc(Nc3ccc(NCCCN4CCOCC4)c(F)c3)n2)c1)c1c(F)cccc1F`, the IC50 was 315 nM. Turning to `CCn1c(-c2nonc2N)nc2c(-c3cc4ccccc4s3)ncc(C(=O)N3CCC(N)C3)c21` (stereo not given), the IC50 was 89 nM.

What is called IC50 is the point on the concentration scale where inhibition reaches its midpoint.
